Starred links: 1 amine or outer side, 2 acyl side, 3 side chain; linkers in the order of their positions; H or OH if unused. *: point of attachment. cholesteryl‑oxycarbonylmethyl = CC(C)CCC[C@@H](C)[C@H]1CC[C@H]2[C@@H]3CC=C4C[C@@H](OC(=O)C*)CC[C@]4(C)[C@H]3CC[C@]12C; C(Bzl) = O=C([C@H](CSCc1ccccc1)N[*:1])[*:2]; Palmitoyl = CCCCCCCCCCCCCCCC(=O)*; Suc = O=C(CCC(=O)[*:2])[*:1]; Pentanoyl = CCCCC(=O)*; Tba = not defined here; Butyryl = CCCC(=O)*
Legend:
[1] = test system: HIV wild type virus strain IIIB; assay: Standard Anti-Viral-Experiment (AVE), HIV-1 replication assay in MT4-LTR-EGFP cells, wild type IIIB; assay type: cell-based; conditions: 3 days, EGFP signal
In short: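 MT4-LTR-EGFP cells infected with HIV-1 IIIB, HXB2D or HXB2D gp41 mutants V38A/Q40H alongside serial 4-fold compound dilutions, 3 days at 37° C. EGFP read by laser-scanning microscopy; EC50 by linear interpolation against log concentration. Mutant results given as fold change in EC50 versus wild-type HXB2D.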

[2] = test system: HIV mutant virus strain HXB2D with mutation V38A in the gp41 gene; assay: Standard AVE, HXB2D site directed mutant V38A; assay type: cell-based, HIV-1; conditions: fold change vs wild type strain HXB2D
Excerpt: (§1) • Standard Anti-Viral-Experiment “AVE” (wild type HIV strain IIIB+HIV strain HXB2D side directed mutants V38A and Q40H)
(§2) The HIV-1 replication assay measures virus replication (HIV wild type virus strain 111B or HXB2D, or a HIV mutant virus strain HXB2D with mutation V38A or Q40H in the gp41 gene) as an induction of enhanced green fluorescent protein (EGFP) expression. The indicator MT4-LTR-EGFP cells contain an EGFP gene under the control of the HIV-1 LTR promoter sequence. Successful HIV-1 infection results in viral Tat protein expression and subsequent induction of EGFP expression. Compounds/peptides inhibiting HIV-1 infection are expected to reduce EGFP expression as compared to the untreated HIV-infected control.
(§3) Serial 4-fold dilutions of test compounds/peptides were mixed with HIV-1 (IIIB, HXB2D, or a HXB2D mutant virus (V38A or Q40H)) and MT4-LTR-EGFP cells and incubated at 37° C. After 3 days, the wells were examined for EGFP expression using an argon laser-scanning microscope. The effective compound/peptide concentration inhibiting 50% of the virus-induced EGFP signal (EC50) was determined by linear interpolation of the EGFP signal vs. logarithm of the compound concentration; (T20, C34 and Sifuvirtide were added as reference compounds). For the V38A and Q40H mutant viruses, results were reported as a fold change in EC50, as compared with a drug-susceptible wild type strain HXB2D, which forms the backbone of the mutant virus. • Standard AVE (50% Human Serum)

[3] = test system: HIV mutant virus strain HXB2D with mutation Q40H in the gp41 gene; assay: Standard AVE, HXB2D site directed mutant Q40H; assay type: cell-based, HIV-1; conditions: fold change vs wild type strain HXB2D
Excerpt: as §1, §2, §3

HIV-IIIB + 50% HS = assay: Standard AVE (50% Human Serum), HIV-1 replication assay in MT4-LTR-EGFP cells; assay type: cell-based; conditions: fold change vs EC50 in the assay without human serum
In short: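 MT4-LTR-EGFP cells infected with HIV-1 alongside 4-fold serial compound dilutions in 50% human serum, 3 days at 37 °C. EGFP read by laser-scanning microscopy; EC50 by linear interpolation against log concentration, reported as fold change versus EC50 without serum.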

Row | Substance | EC50 [1] [nM] | HIV-HXB2D V38A mutant (fold change in EC50) [2] | HIV-HXB2D Q40H mutant (fold change in EC50) [3] | HIV-IIIB + 50% HS (Fold change in EC50) (HIV-IIIB + 50% HS)
1 | Suc-CYLACIEELIRKAQEQQEKNEAAL-Tba-NH2 [24] (Suc-CYLACIEELIRKAQEQQEKNEAAL-{Tba-NH2}; cysteine pairing not given here; reading uncertain; also: printed as Suc-CYLACIEELIRKAQEQQEKNEAAL-Tba-NH2) [Peptide 24] | 1 | 26 | 321 | 1
2 | Ac-ACYAACIEALIRAAQEQQEKNEAALRGSGC(cholesteryl-oxycarbonylmethyl)-NH2 [87] (Ac-ACYAACIEALIRAAQEQQEKNEAALRGSGC(cholesteryl‑oxycarbonylmethyl)-NH2; cysteine pairing not given here) [Peptide 87] | 0.1 | 1 | 5 | 14
3 | Ac-ACY-Tba-ACIEALIRAAQEQQEKNEAALR-NH2 [Peptide 60] | 5 | 18 |  | 3
4 | Suc-CYLACIEELIRKAQEQQEKNEAAL-Tba-NH2 [23] (Suc-CYLACIEELIRKAQEQQEKNEAAL-{Tba-NH2}; cysteine pairing not given here; reading uncertain; also: printed as Suc-CYLACIEELIRKAQEQQEKNEAAL-Tba-NH2) [Peptide 23] | 1 | 45 | 807 | 0.6
5 | Suc-ACY-Abu-ACIEALIRAAQEQQEKNEAALR-NH2 [Peptide 49] | 6 | 33 |  | 0.6
6 | Ac-A-C(Bzl)-YAALIEALIRAAQEQQEKNEAALR-NH2 ({Ac-Ala-C(Bzl)}-YAALIEALIRAAQEQQEKNEAALR-NH2; SMILES CC[C@H](C)[C@H](NC(=O)[C@H](CC(C)C)NC(=O)[C@H](C)NC(=O)[C@H](CCC(=O)O)NC(=O)[C@@H](NC(=O)[C@H](CC(C)C)NC(=O)[C@H](C)NC(=O)[C@H](C)NC(=O)[C@H](Cc1ccc(O)cc1)NC(=O)[C@H](CSCc1ccccc1)NC(=O)[C@H](C)NC(C)=O)[C@@H](C)CC)C(=O)N[C@@H](CCCNC(=N)N)C(=O)N[C@@H](C)C(=O)N[C@@H](C)C(=O)N[C@@H](CCC(N)=O)C(=O)N[C@@H](CCC(=O)O)C(=O)N[C@@H](CCC(N)=O)C(=O)N[C@@H](CCC(N)=O)C(=O)N[C@@H](CCC(=O)O)C(=O)N[C@@H](CCCCN)C(=O)N[C@@H](CC(N)=O)C(=O)N[C@@H](CCC(=O)O)C(=O)N[C@@H](C)C(=O)N[C@@H](C)C(=O)N[C@@H](CC(C)C)C(=O)N[C@@H](CCCNC(=N)N)C(N)=O) [Peptide 4] | 10 | 74 |  | 2
7 | Pentanoyl-ANYLALIEALIRAAQEQQEKNEAALR-NH2 (SMILES CCCCC(=O)N[C@@H](C)C(=O)N[C@@H](CC(N)=O)C(=O)N[C@@H](Cc1ccc(O)cc1)C(=O)N[C@@H](CC(C)C)C(=O)N[C@@H](C)C(=O)N[C@@H](CC(C)C)C(=O)N[C@H](C(=O)N[C@@H](CCC(=O)O)C(=O)N[C@@H](C)C(=O)N[C@@H](CC(C)C)C(=O)N[C@H](C(=O)N[C@@H](CCCNC(=N)N)C(=O)N[C@@H](C)C(=O)N[C@@H](C)C(=O)N[C@@H](CCC(N)=O)C(=O)N[C@@H](CCC(=O)O)C(=O)N[C@@H](CCC(N)=O)C(=O)N[C@@H](CCC(N)=O)C(=O)N[C@@H](CCC(=O)O)C(=O)N[C@@H](CCCCN)C(=O)N[C@@H](CC(N)=O)C(=O)N[C@@H](CCC(=O)O)C(=O)N[C@@H](C)C(=O)N[C@@H](C)C(=O)N[C@@H](CC(C)C)C(=O)N[C@@H](CCCNC(=N)N)C(N)=O)[C@@H](C)CC)[C@@H](C)CC) [Peptide 15] | 2 |  | 168 | 2
8 | Suc-ECYLRCIEELIRKAQEQQEKNEAALR-NH2 (cysteine pairing not given here) [Peptide 29] | 0.8 |  | 98 | 0.6
9 | Pentanoyl-ANYAALIEALIRKAQEQQEKNEAALR-NH2 (SMILES CCCCC(=O)N[C@@H](C)C(=O)N[C@@H](CC(N)=O)C(=O)N[C@@H](Cc1ccc(O)cc1)C(=O)N[C@@H](C)C(=O)N[C@@H](C)C(=O)N[C@@H](CC(C)C)C(=O)N[C@H](C(=O)N[C@@H](CCC(=O)O)C(=O)N[C@@H](C)C(=O)N[C@@H](CC(C)C)C(=O)N[C@H](C(=O)N[C@@H](CCCNC(=N)N)C(=O)N[C@@H](CCCCN)C(=O)N[C@@H](C)C(=O)N[C@@H](CCC(N)=O)C(=O)N[C@@H](CCC(=O)O)C(=O)N[C@@H](CCC(N)=O)C(=O)N[C@@H](CCC(N)=O)C(=O)N[C@@H](CCC(=O)O)C(=O)N[C@@H](CCCCN)C(=O)N[C@@H](CC(N)=O)C(=O)N[C@@H](CCC(=O)O)C(=O)N[C@@H](C)C(=O)N[C@@H](C)C(=O)N[C@@H](CC(C)C)C(=O)N[C@@H](CCCNC(=N)N)C(N)=O)[C@@H](C)CC)[C@@H](C)CC) [Peptide 16] | 8 |  | >108 | 0.8
10 | ANYAALIEALIRAAQEQQEKNEAALR [Peptide 2] | 77 |  | >28 | 1
11 | Suc-ANYLALIEALIRAAQEQQEKNEAALK(palmitoyl)-NH2 (Suc-ANYLALIEALIRAAQEQQEKNEAALK(Palmitoyl)-NH2; SMILES CCCCCCCCCCCCCCCC(=O)NCCCC[C@H](NC(=O)[C@H](CC(C)C)NC(=O)[C@H](C)NC(=O)[C@H](C)NC(=O)[C@H](CCC(=O)O)NC(=O)[C@H](CC(N)=O)NC(=O)[C@H](CCCCN)NC(=O)[C@H](CCC(=O)O)NC(=O)[C@H](CCC(N)=O)NC(=O)[C@H](CCC(N)=O)NC(=O)[C@H](CCC(=O)O)NC(=O)[C@H](CCC(N)=O)NC(=O)[C@H](C)NC(=O)[C@H](C)NC(=O)[C@H](CCCNC(=N)N)NC(=O)[C@@H](NC(=O)[C@H](CC(C)C)NC(=O)[C@H](C)NC(=O)[C@H](CCC(=O)O)NC(=O)[C@@H](NC(=O)[C@H](CC(C)C)NC(=O)[C@H](C)NC(=O)[C@H](CC(C)C)NC(=O)[C@H](Cc1ccc(O)cc1)NC(=O)[C@H](CC(N)=O)NC(=O)[C@H](C)NC(=O)CCC(=O)O)[C@@H](C)CC)[C@@H](C)CC)C(N)=O) [Peptide 13] | 0.4 |  | 9 | 9
12 | Ac-ACYLACIEALIRKAQEQQEKNEAALR-NH2 [Peptide 48] | 3 |  | 62 | 1
13 | Pentanoyl-ECYLCLIEELIRKAQEQQEKNEAALR-NH2 (cysteine pairing not given here) [Peptide 92] | 1 |  | 3 | 5
14 | Pentanoyl-ENYLALIEELIRKAQEQQEKNEAALR-NH2 (SMILES CCCCC(=O)N[C@@H](CCC(=O)O)C(=O)N[C@@H](CC(N)=O)C(=O)N[C@@H](Cc1ccc(O)cc1)C(=O)N[C@@H](CC(C)C)C(=O)N[C@@H](C)C(=O)N[C@@H](CC(C)C)C(=O)N[C@H](C(=O)N[C@@H](CCC(=O)O)C(=O)N[C@@H](CCC(=O)O)C(=O)N[C@@H](CC(C)C)C(=O)N[C@H](C(=O)N[C@@H](CCCNC(=N)N)C(=O)N[C@@H](CCCCN)C(=O)N[C@@H](C)C(=O)N[C@@H](CCC(N)=O)C(=O)N[C@@H](CCC(=O)O)C(=O)N[C@@H](CCC(N)=O)C(=O)N[C@@H](CCC(N)=O)C(=O)N[C@@H](CCC(=O)O)C(=O)N[C@@H](CCCCN)C(=O)N[C@@H](CC(N)=O)C(=O)N[C@@H](CCC(=O)O)C(=O)N[C@@H](C)C(=O)N[C@@H](C)C(=O)N[C@@H](CC(C)C)C(=O)N[C@@H](CCCNC(=N)N)C(N)=O)[C@@H](C)CC)[C@@H](C)CC) [Peptide 52] | 1 |  | 38 | 2
15 | Butanoyl-ECYLACIEELIRKAQEQQEKNEAALR-NH2 (Butyryl-ECYLACIEELIRKAQEQQEKNEAALR-NH2; cysteine pairing not given here) [Peptide 40] | 1 |  | 84 | 1
16 | Ac-ECYLRCIEALIRAAQEQQEKNEAALR-NH2 [Peptide 50] | 2 |  | 33 | 2
17 | Suc-ACYLACIEALIRAAQEQQEKNEAALR-NH2 (cysteine pairing not given here) [Peptide 43] | 2 |  | 103 | 1

Source: patent US20140357577A1, “HIV Membrane Fusion Inhibitors” (priority 2011, published 2014)
